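Growth conditions: 96-well plates. Treatment: test compound, 48 hours, 5 concentrations. Analysis: linear interpolation between bracketing concentrations; unreached endpoints set to highest concentration. The concentration for 50% growth inhibition is given as GI50. The concentration for full growth arrest is given as TGI.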
How the values were obtained:
Test in all cases: NCI tumour cell line growth inhibition, 48 h
HOP-92 NSCLC = system: HOP-92 NSCLC
SK-MEL-28 melanoma = system: SK-MEL-28 melanoma
TK-10 renal = system: TK-10 renal
HOP-62 NSCLC = system: HOP-62 NSCLC
HT29 colon = system: HT29 colon
KM12 colon = system: KM12 colon
COLO 205 colon = system: COLO 205 colon
SF-295 CNS = system: SF-295 CNS
U251 CNS = system: U251 CNS
MDA-MB-231 breast = system: MDA-MB-231 breast

| SMILES | TGI (HOP-92 NSCLC) [µM] | TGI (SK-MEL-28 melanoma) [µM] | TGI (TK-10 renal) [µM] | TGI (HOP-62 NSCLC) [µM] | TGI (HT29 colon) [µM] | TGI (KM12 colon) [µM] | TGI (COLO 205 colon) [µM] | TGI (SF-295 CNS) [µM] | TGI (U251 CNS) [µM] | GI50 (MDA-MB-231 breast) [µM] | TGI (MDA-MB-231 breast) [µM] | GI50 (SK-MEL-28 melanoma) [µM] | GI50 (TK-10 renal) [µM] | GI50 (HOP-62 NSCLC) [µM] | GI50 (HT29 colon) [µM] | GI50 (KM12 colon) [µM] | GI50 (COLO 205 colon) [µM] | GI50 (SF-295 CNS) [µM] | GI50 (U251 CNS) [µM] | GI50 (HOP-92 NSCLC) [µM] |
| --- | --- | --- | --- | --- | --- | --- | --- | --- | --- | --- | --- | --- | --- | --- | --- | --- | --- | --- | --- | --- |
| COc1cc(/C=C(\C#N)C(=O)c2ccccc2)cc(OC)c1OC | > 100 | > 100 | > 100 | > 100 | > 100 | > 100 | > 100 | > 100 | > 100 |  |  |  |  |  |  |  |  |  |  |  |
| O=C(NC(=Nc1ccccc1)SCCSC(=Nc1ccccc1)NC(=O)c1ccccc1)c1ccccc1 | 58.7 | > 100 | > 100 | > 100 | > 100 | > 100 | > 100 | > 100 | > 100 |  |  |  |  |  |  |  |  |  |  |  |
| Cc1nc2ccccc2c(=O)n1/N=C(\N=Nc1ccc(Cl)cc1)c1ccc(N(C)C)cc1 |  | > 100 | > 100 | > 100 | > 100 |  | > 100 | > 100 |  |  |  |  |  |  |  |  |  |  |  |  |
| O=C1N(c2ccccc2)C2(O)C(=O)c3ccccc3C2(O)N1c1ccccc1 (configuration not stated) |  | > 100 | > 100 | > 100 | > 100 | > 100 | > 100 | > 100 | > 100 |  |  |  |  |  |  |  |  |  |  |  |
| N#CC1(C2CC(=O)N(c3ccccc3)C2=O)CCCCC1=O (configuration not stated) |  | > 100 | > 100 |  | > 100 | > 100 | > 100 | > 100 | > 100 |  |  |  |  |  |  |  |  |  |  |  |
| CC(=O)NNc1nc(C)c(C(=O)NNC(=O)C(=O)Nc2ccc(C)cc2[N+](=O)[O-])s1 | > 100 | > 100 | > 100 | > 100 | > 100 | > 100 | > 100 | > 100 | > 100 |  |  |  |  |  |  |  |  |  |  |  |
| N/C(=N\O)c1cn(C2OC(CO)C(O)C2O)c2ncnc(N)c12 (configuration not stated) |  | 0.382 | 7.49 | > 68.7 | 18.6 |  | 0.601 | 7.3 | > 71.7 | 0.197 | 18.9 | 0.127 | 0.204 | 0.468 | 0.226 | 0.188 | 0.131 | 0.275 | 0.185 |  |
| Cc1cc2c(=O)cc(-c3ccncc3)oc2c(C(N)=O)c1C | > 100 | > 100 | > 100 | > 100 | > 100 |  | > 100 | > 100 | > 100 |  |  |  |  |  |  |  |  |  |  |  |
| Cc1cc(Br)ccc1N=NC1C(=O)ON=C1c1ccccc1 (configuration not stated) | > 100 | > 100 | > 100 | > 100 | > 100 | > 100 | 29.6 | > 100 | > 100 |  |  |  |  |  |  |  |  |  |  |  |
| CC(=O)Nc1ccc(/C=C/C(=O)c2sc(-n3nc(-c4ccccc4)cc3-c3ccccc3)nc2C)cc1 |  | > 100 | > 100 | > 100 | > 100 | > 100 | > 100 | > 100 | > 100 |  |  | > 100 | > 100 | > 100 |  |  | > 100 | > 100 | > 100 |  |
| COc1cc(Br)c(C2OCCCO2)cc1OCc1ccccc1 | 64.3 | > 100 | > 100 | > 100 | > 100 | > 100 | > 100 | > 100 | > 100 |  |  |  |  |  |  |  |  |  |  |  |
| CC1CC(=O)C(CC(=O)O)[C@H]1C(C(=O)C(=O)Nc1cc(Cl)ccc1Cl)[N+](=O)[O-] (some centres not stated) | > 100 | > 100 | > 100 | > 100 | > 100 | > 100 | > 100 | > 100 | > 100 |  |  |  |  |  |  |  |  |  |  |  |
| CCC[CH2][Sn]1([CH2]CCC)[O]C(=O)c2cccnc2[S]1 | 12.1 | 10.6 | 12.1 | 43.7 | 24.7 | 19.6 | 9.33 | 12 | 5.33 |  |  | 2.7 | 3.71 | 28.9 | 11.1 | 6.92 | 3.34 | 3.19 | 1.21 | 3.37 |
| O=c1[nH]c2c(ccc3cnccc32)c2c1CCC2 |  | 0.84 |  | > 100 | > 100 | > 35.7 | 0.677 | > 100 | > 100 | 0.361 | > 100 | 0.306 | 0.331 | 0.431 | 0.447 | 0.332 | 0.241 | 0.362 | 0.33 |  |
| COc1ccc(Cc2c3cc(OC)c(OC)cc3cc[n+]2C)cc1 | 58.7 | > 58.6 | > 65.1 | > 48.7 | > 27.1 | > 23 | > 16.7 | > 24.7 | > 73.1 |  |  |  |  |  |  |  |  |  |  |  |
| COc1cc(CC2c3cc(OC)c(OC)cc3CCN2C)c(C(=O)O)cc1OC (configuration not stated) | > 100 | > 100 | > 100 | > 100 | > 100 | > 100 | > 100 | > 100 | > 100 |  |  |  |  |  |  |  |  |  |  |  |
| C/C=C/C(C/C=C(\C)CO[Si](C)(C)C(C)(C)C)O[Si](C)(C)C(C)(C)C (configuration not stated) |  | > 100 | > 100 | > 100 | > 100 | > 100 | > 100 | > 100 |  |  | > 100 |  |  |  |  |  |  |  |  |  |
| CCCCP1(=O)C=CC(Cl)=C(C)C1 (configuration not stated) | > 100 | > 100 | > 100 | > 100 | > 100 | > 100 | > 100 | > 100 | > 100 |  |  |  |  |  |  |  |  |  |  |  |
| CC1(C)OC2OC(/C=C/[N+](=O)[O-])C3OC(C)(C)OC3C2O1 (configuration not stated) | 19.6 | 32.9 | 9.56 | 38.3 | 40.1 | 31.5 | 14.5 | 36 | 32.7 |  |  |  |  |  |  |  |  |  |  |  |
| C=CC(C)(C)[C@@]12CC3C(=O)N[C@@H](Cc4ccccc4)C(=O)N3[C@@H]1N(C(C)=O)c1ccccc12 (some centres not stated) | 91.2 | > 100 | > 100 | > 100 | > 100 | > 100 | > 100 | > 100 | > 100 |  |  |  |  |  |  |  |  |  |  |  |
